According to ChEMBL document CHEMBL1201862, “PubChem BioAssay data set” (2004):
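Interpolation was linear, between the two tested concentrations surrounding the appropriate level; five concentrations were tested over 48 hours in 96-well plates. Abbreviation: GI50, concentration required for 50% inhibition of growth.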 Activity calls are given as the source filed them. No stated cut-off is given here; in the data, active = GI50 up to about 1.1 µM and inactive = higher.

Tests used:
Test in all cases: inhibition of tumour cell growth, NCI panel, 48 h
SK-MEL-5 = test system: SK-MEL-5
HCC 2998 = test system: HCC 2998
SK-OV-3 = test system: SK-OV-3
M14 = test system: M14
DU-145 = test system: DU-145
SK-MEL-28 = test system: SK-MEL-28
SF-268 = test system: SF-268
ACHN = test system: ACHN
CAKI-1 = test system: CAKI-1
SNB-75 = test system: SNB-75
MCF7 = test system: MCF7
MDA-MB-231 = test system: MDA-MB-231
T47D = test system: T47D
HOP-62 = test system: HOP-62
SW-620 = test system: SW-620
UO-31 = test system: UO-31
OVCAR-8 = test system: OVCAR-8
HOP-92 = test system: HOP-92
SR = test system: SR
HCT-116 = test system: HCT-116
MOLT-4 = test system: MOLT-4
EKVX = test system: EKVX
SF-539 = test system: SF-539
HT-29 = test system: HT-29
UACC-62 = test system: UACC-62
A498 = test system: A498
K562 = test system: K562
UACC-257 = test system: UACC-257
BT-549 = test system: BT-549
RPMI-8226 = test system: RPMI-8226
NCI/ADR-RES = test system: NCI/ADR-RES
COLO 205 = test system: COLO 205
NCI-H460 = test system: NCI-H460
Malme-3M = test system: Malme-3M
Hs-578T = test system: Hs-578T
SN12C = test system: SN12C
LOX IMVI = test system: LOX IMVI
MDA-MB-435 = test system: MDA-MB-435
SF-295 = test system: SF-295
OVCAR-5 = test system: OVCAR-5
OVCAR-3 = test system: OVCAR-3
SNB-19 = test system: SNB-19
MDA-N = test system: MDA-N
TK-10 = test system: TK-10
KM12 = test system: KM12
U-251 = test system: U-251
A549 = test system: A549
RXF 393 = test system: RXF 393
NCI-H522 = test system: NCI-H522
NCI-H23 = test system: NCI-H23
PC-3 = test system: PC-3
786-0 = test system: 786-0
HCT-15 = test system: HCT-15
OVCAR-4 = test system: OVCAR-4
IGROV-1 = test system: IGROV-1
SK-MEL-2 = test system: SK-MEL-2
CCRF-CEM = test system: CCRF-CEM

## Cc1[nH]n(-c2ccc(S(=O)(=O)O)cc2)c(=O)c1/N=N/c1ccccc1
SK-MEL-5
  GI50: > 100 µM (inactive)
HCC 2998
  GI50: 8.04 µM (inactive)
SK-OV-3
  GI50: > 100 µM (inactive)
M14
  GI50: > 100 µM (inactive)
DU-145
  GI50: > 100 µM (inactive)
SK-MEL-28
  GI50: > 100 µM (inactive)
SF-268
  GI50: 50.7 µM (inactive)
ACHN
  GI50: 55.2 µM (inactive)
CAKI-1
  GI50: > 100 µM (inactive)
SNB-75
  GI50: > 100 µM (inactive)
MCF7
  GI50: > 100 µM (inactive)
MDA-MB-231
  GI50: > 100 µM (inactive)
T47D
  GI50: > 100 µM (inactive)
HOP-62
  GI50: > 100 µM (inactive)
SW-620
  GI50: > 100 µM (inactive)
UO-31
  GI50: > 100 µM (inactive)
OVCAR-8
  GI50: > 100 µM (inactive)
HOP-92
  GI50: > 100 µM (inactive)
SR
  GI50: > 100 µM (inactive)
HCT-116
  GI50: > 100 µM (inactive)
MOLT-4
  GI50: > 100 µM (inactive)
EKVX
  GI50: > 100 µM (inactive)
SF-539
  GI50: > 100 µM (inactive)
HT-29
  GI50: > 100 µM (inactive)
UACC-62
  GI50: 95.1 µM (inactive)
A498
  GI50: > 100 µM (inactive)
K562
  GI50: > 100 µM (inactive)
UACC-257
  GI50: > 100 µM (inactive)
BT-549
  GI50: > 100 µM (inactive)
RPMI-8226
  GI50: > 100 µM (inactive)
NCI/ADR-RES
  GI50: > 100 µM (inactive)
COLO 205
  GI50: > 100 µM (inactive)
NCI-H460
  GI50: > 100 µM (inactive)
Malme-3M
  GI50: 51.6 µM (inactive)
Hs-578T
  GI50: > 100 µM (inactive)
SN12C
  GI50: > 100 µM (inactive)
LOX IMVI
  GI50: 26.7 µM (inactive)
MDA-MB-435
  GI50: > 100 µM (inactive)
SF-295
  GI50: > 100 µM (inactive)
OVCAR-5
  GI50: > 100 µM (inactive)
OVCAR-3
  GI50: > 100 µM (inactive)
SNB-19
  GI50: > 100 µM (inactive)
MDA-N
  GI50: > 100 µM (inactive)
TK-10
  GI50: > 100 µM (inactive)
KM12
  GI50: > 100 µM (inactive)
U-251
  GI50: > 100 µM (inactive)
A549
  GI50: > 100 µM (inactive)
RXF 393
  GI50: > 100 µM (inactive)
NCI-H522
  GI50: 35 µM (inactive)
NCI-H23
  GI50: > 100 µM (inactive)
PC-3
  GI50: > 100 µM (inactive)
786-0
  GI50: > 100 µM (inactive)
HCT-15
  GI50: > 100 µM
OVCAR-4
  GI50: > 100 µM (inactive)
IGROV-1
  GI50: > 100 µM (inactive)
SK-MEL-2
  GI50: > 100 µM (inactive)

## CC(=O)Oc1ccc(/C=C/C(=O)NCCOC(=O)/C=C/c2ccc(OC(C)=O)c(OC(C)=O)c2)cc1OC(C)=O
SK-MEL-5
  GI50: 17.6 µM (inactive)
HCC 2998
  GI50: 34.3 µM (inactive)
SK-OV-3
  GI50: 42 µM (inactive)
M14
  GI50: 27.8 µM (inactive)
DU-145
  GI50: 20.6 µM (inactive)
SK-MEL-28
  GI50: 34.4 µM (inactive)
SF-268
  GI50: 20 µM (inactive)
ACHN
  GI50: 26.2 µM (inactive)
CAKI-1
  GI50: 32.8 µM (inactive)
SNB-75
  GI50: 20.1 µM (inactive)
MCF7
  GI50: 29.5 µM (inactive)
CCRF-CEM
  GI50: 0.571 µM (active)
MDA-MB-231
  GI50: 45.2 µM (inactive)
T47D
  GI50: 20.4 µM (inactive)
HOP-62
  GI50: 21.9 µM (inactive)
SW-620
  GI50: 19.3 µM (inactive)
UO-31
  GI50: 22.9 µM (inactive)
OVCAR-8
  GI50: 25.2 µM (inactive)
HOP-92
  GI50: 28.2 µM (inactive)
SR
  GI50: 14.1 µM (inactive)
HCT-116
  GI50: 14.5 µM (inactive)
MOLT-4
  GI50: 4.8 µM (inactive)
EKVX
  GI50: 34.7 µM (inactive)
SF-539
  GI50: 35.7 µM (inactive)
HT-29
  GI50: 25.6 µM (inactive)
UACC-62
  GI50: 18.7 µM (inactive)
A498
  GI50: 31.7 µM (inactive)
K562
  GI50: 32.4 µM (inactive)
UACC-257
  GI50: 31.3 µM (inactive)
BT-549
  GI50: 38.7 µM (inactive)
RPMI-8226
  GI50: 26.2 µM (inactive)
NCI/ADR-RES
  GI50: 70.1 µM (inactive)
COLO 205
  GI50: 42.5 µM (inactive)
NCI-H460
  GI50: 32 µM (inactive)
Malme-3M
  GI50: 28.5 µM (inactive)
Hs-578T
  GI50: 33.6 µM (inactive)
SN12C
  GI50: 26.1 µM (inactive)
LOX IMVI
  GI50: 13.9 µM (inactive)
MDA-MB-435
  GI50: 31.7 µM (inactive)
SF-295
  GI50: 23.7 µM (inactive)
OVCAR-5
  GI50: 23.8 µM (inactive)
OVCAR-3
  GI50: 16.1 µM (inactive)
SNB-19
  GI50: 21.2 µM (inactive)
MDA-N
  GI50: 22.5 µM (inactive)
TK-10
  GI50: 23 µM (inactive)
KM12
  GI50: 32.4 µM (inactive)
U-251
  GI50: 28.4 µM (inactive)
A549
  GI50: 57.5 µM (inactive)
RXF 393
  GI50: 11.7 µM (inactive)
NCI-H522
  GI50: 8.97 µM (inactive)
NCI-H23
  GI50: 26.4 µM (inactive)
PC-3
  GI50: 34 µM (inactive)
786-0
  GI50: 19.5 µM (inactive)
HCT-15
  GI50: 34.8 µM
OVCAR-4
  GI50: 18.4 µM (inactive)
IGROV-1
  GI50: 33 µM (inactive)
SK-MEL-2
  GI50: 46.5 µM (inactive)
